Experimental data: patent US10745398B2, “2-(het)aryl-substituted fused heterocycle derivatives as pesticides” (Bayer CropScience Aktiengesellschaft, priority 2015, dated 2020)

Key:
[1] = log P (neutral) by HPLC on reversed-phase column (C 18), EEC Directive 79/831 Annex V.A8; assay type: physicochemical; settings: HPLC reversed-phase C 18, 55° C., neutral range pH 7.8, ammonium hydrogencarbonate/acetonitrile
[2] = tested on: adult cat fleas (Ctenocephalides felis); assay: Ctenocephalides felis - in vitro contact tests with adult cat fleas; assay type: in vivo; settings: application rate 5 μg/cm^2 (500 g/ha), after 48 h
Description: For the coating of the test tubes, 9 mg of active compound are first dissolved in 1 ml of acetone p.a. and then diluted to the desired concentration with acetone p.a. 250 μl of the solution are distributed homogeneously on the inner walls and the base of a 25 ml test tube by turning and rocking on an orbital shaker (rocking rotation at 30 rpm for 2 h). With 900 ppm active compound solution and internal surface 44.7 cm^2, given homogeneous distribution, an area-based dose of 5 μg/cm^2 is achieved.
After the solvent has evaporated off, the tubes are populated with 5-10 adult cat fleas (Ctenocephalides felis), sealed with a perforated plastic lid and incubated in a horizontal position at room temperature and ambient humidity. After 48 h, efficacy is determined. To this end, the test tubes are stood upright and the fleas are knocked to the base of the tube. Fleas which remain motionless at the base or move in an uncoordinated manner are considered to be dead or moribund.
100% efficacy means that all the fleas were dead or moribund. 0% efficacy means that no fleas were harmed.

[3] = tested on: engorged adult female cattle ticks (Boophilus microplus); assay: Boophilus microplus - injection test; assay type: in vivo; settings: application rate 20 μg/animal, assessed after 7 days
Description: (§1) Solvent: dimethyl sulphoxide
To produce a suitable active compound preparation, 10 mg of active compound are mixed with 0.5 ml of solvent and the concentrate is diluted with solvent to the desired concentration.
1 μl of the active compound solution is injected into the abdomen of 5 engorged adult female cattle ticks (Boophilus microplus). The animals are transferred into dishes and kept in a climate-controlled room.
Efficacy is assessed after 7 days by laying of fertile eggs. Eggs which are not visibly fertile are stored in a climate-controlled cabinet until the larvae hatch after about 42 days. An efficacy of 100% means that none of the ticks has laid any fertile eggs; 0% means that all the eggs are fertile.

[4] = tested on: unfed adult cat fleas (Ctenocephalides felis); assay: Ctenocephalides felis - oral test; assay type: in vivo; settings: application rate 100 ppm in citrated cattle blood, after 2 days
Description: as §1
To produce a suitable active compound preparation, 10 mg of active compound are mixed with 0.5 ml of dimethyl sulphoxide. Dilution with citrated cattle blood gives the desired concentration.
About 20 unfed adult cat fleas (Ctenocephalides felis) are placed into a chamber which is closed at the top and bottom with gauze. A metal cylinder whose bottom end is closed with parafilm is placed onto the chamber. The cylinder contains the blood/active compound preparation, which can be imbibed by the fleas through the parafilm membrane.
After 2 days, the kill in % is determined. 100% means that all of the fleas have been killed; 0% means that none of the fleas have been killed.

[5] = tested on: L1 larvae of the Australian sheep blowfly (Lucilia cuprina); assay: Lucilia cuprina test; assay type: in vivo; settings: application rate 100 ppm, after 2 days
Description: as §1
(§2) To produce a suitable active compound preparation, 10 mg of active compound are mixed with 0.5 ml of dimethyl sulphoxide, and the concentrate is diluted with water to the desired concentration.
About 20 L1 larvae of the Australian sheep blowfly (Lucilia cuprina) are transferred into a test vessel containing minced horsemeat and the active compound preparation of the desired concentration.
After 2 days, the kill in % is determined. 100% means that all the larvae have been killed; 0% means that no larvae have been killed.

[6] = tested on: southern root-knot nematode (Meloidogyne incognita); assay: Meloidogyne incognita test; assay type: in vivo; settings: application rate 20 ppm, lettuce, after 14 days
Description: Solvent: 125.0 parts by weight of acetone
To produce a suitable preparation of active compound, 1 part by weight of active compound is mixed with the stated amount of solvent and the concentrate is diluted with water to the desired concentration.
Vessels are filled with sand, active compound solution, an egg/larvae suspension of the southern root-knot nematode (Meloidogyne incognita) and lettuce seeds. The lettuce seeds germinate and the plants develop. The galls develop on the roots.
After 14 days, the nematicidal efficacy in % is determined by the formation of galls. 100% means that no galls were found; 0% means that the number of galls on the treated plants corresponds to the untreated control.

[7] = tested on: larvae of the mustard beetle (Phaedon cochleariae); assay: Phaedon cochleariae - spray test; assay type: in vivo; settings: application rate 500 g/ha, Chinese cabbage leaf discs, after 7 days
Description: (§3) Solvent: 78.0 parts by weight of acetone • • 1.5 parts by weight of dimethylformamide
(§4) Emulsifier: alkylaryl polyglycol ether
(§5) To produce a suitable active compound preparation, 1 part by weight of active compound is dissolved with the stated parts by weight of solvent and made up with water containing an emulsifier concentration of 1000 ppm until the desired concentration is attained. To produce further test concentrations, the preparation is diluted with emulsifier-containing water.
After 7 days, the efficacy in % is determined. 100% means that all the beetle larvae have been killed; 0% means that no beetle larvae have been killed.

[8] = tested on: caterpillars of the armyworm (Spodoptera frugiperda); assay: Spodoptera frugiperda - spray test; assay type: in vivo; settings: application rate 500 g/ha, maize leaf discs, after 7 days
Description: as §3, §4, §5
Leaf discs of maize (Zea mays) are sprayed with an active compound preparation of the desired concentration and, after drying, populated with caterpillars of the armyworm (Spodoptera frugiperda).
After 7 days, the efficacy in % is determined. 100% means that all the caterpillars have been killed; 0% means that no caterpillar has been killed.

[9] = tested on: greenhouse red spider mite (Tetranychus urticae); assay: Tetranychus urticae - spray test, OP-resistant; assay type: in vivo; settings: application rate 500 g/ha, bean leaf discs, after 6 days
Description: as §3, §4, §5
Discs of bean leaves (Phaseolus vulgaris) infested with all stages of the greenhouse red spider mite (Tetranychus urticae) are sprayed with an active compound preparation of the desired concentration.
After 6 days, the efficacy in % is determined. 100% means that all the spider mites have been killed; 0% means that no spider mites have been killed.

[10] = tested on: adult houseflies (Musca domestica); assay: Musca domestica test; assay type: in vivo; settings: application rate 100 ppm, after 2 days
Description: as §1, §2
Vessels containing a sponge treated with sugar solution and the active compound preparation of the desired concentration are populated with 10 adult houseflies (Musca domestica).
After 2 days, the kill in % is determined. 100% means that all of the flies have been killed; 0% means that none of the flies have been killed.

[11] = tested on: green peach aphid (Myzus persicae); assay: Myzus persicae - spray test; assay type: in vivo; settings: application rate 500 g/ha, Chinese cabbage leaf discs, after 5-6 days
Description: Solvent: 78 parts by weight of acetone • • 1.5 parts by weight of dimethylformamide
as §4, §5
Discs of Chinese cabbage leaves (Brassica pekinensis) infested by all stages of the green peach aphid (Myzus persicae) are sprayed with an active compound preparation of the desired concentration.
After 5-6 days, the efficacy in % is determined. 100% means that all the aphids have been killed; 0% means that no aphids have been killed.

| SMILES | log P (neutral) [1] | efficacy (fleas dead or moribund) [2] [%] | efficacy (no laying of fertile eggs) [3] [%] | efficacy (kill in %) [4] [%] | efficacy (kill in %) [5] [%] | nematicidal efficacy (formation of galls) [6] [%] | efficacy (beetle larvae killed) [7] [%] | efficacy (caterpillars killed) [8] [%] | efficacy (spider mites killed) [9] [%] | efficacy (kill in %) [10] [%] | efficacy (aphids killed) [11] [%] |
| --- | --- | --- | --- | --- | --- | --- | --- | --- | --- | --- | --- |
| CCS(=O)(=O)c1ccc(-n2ncn(-c3ccccc3)c2=O)nc1-c1nc2cc(C(F)(F)F)ncc2n1C [Example I-15] | Example I-15: logP (neutral): 2.70 1H-NMR(400.0 MHz, d6-DMSO): □ = | 100 | 80 | 100 | 100 | 100 | 100 | 100 | 70 |  |  |
| CCS(=O)(=O)c1ccc(-n2cnn(-c3ccccc3F)c2=O)nc1-c1nc2cc(C(F)(F)F)ncc2n1C [Example I-1] | Example I-1: logP (neutral): 3.03 ^1H-NMR(400.0 MHz, d6-DMSO): δ = | 100 | 80 | 100 | 100 |  | 100 | 100 | 100 | 80 | 90 |
